Experimental data published in patent US20260102501A1, “ANTI-CANCER NUCLEAR HORMONE RECEPTOR-TARGETING COMPOUNDS” (Nuvation Bio Inc., priority 2022, published 2026).
Residue numbers refer to the chain shown, from its start. Where a name gives a salt, the structure may show the parent alone. Read-outs that look alike come from different tables or passages of the source.

Key:
[1] = biological target: T1, full-length androgen receptor (HEK293 cells stably expressing) (Homo sapiens, UniProt P10275); assay: AR antagonism assay (luciferase reporter)
T1 sequence (P10275 1-920): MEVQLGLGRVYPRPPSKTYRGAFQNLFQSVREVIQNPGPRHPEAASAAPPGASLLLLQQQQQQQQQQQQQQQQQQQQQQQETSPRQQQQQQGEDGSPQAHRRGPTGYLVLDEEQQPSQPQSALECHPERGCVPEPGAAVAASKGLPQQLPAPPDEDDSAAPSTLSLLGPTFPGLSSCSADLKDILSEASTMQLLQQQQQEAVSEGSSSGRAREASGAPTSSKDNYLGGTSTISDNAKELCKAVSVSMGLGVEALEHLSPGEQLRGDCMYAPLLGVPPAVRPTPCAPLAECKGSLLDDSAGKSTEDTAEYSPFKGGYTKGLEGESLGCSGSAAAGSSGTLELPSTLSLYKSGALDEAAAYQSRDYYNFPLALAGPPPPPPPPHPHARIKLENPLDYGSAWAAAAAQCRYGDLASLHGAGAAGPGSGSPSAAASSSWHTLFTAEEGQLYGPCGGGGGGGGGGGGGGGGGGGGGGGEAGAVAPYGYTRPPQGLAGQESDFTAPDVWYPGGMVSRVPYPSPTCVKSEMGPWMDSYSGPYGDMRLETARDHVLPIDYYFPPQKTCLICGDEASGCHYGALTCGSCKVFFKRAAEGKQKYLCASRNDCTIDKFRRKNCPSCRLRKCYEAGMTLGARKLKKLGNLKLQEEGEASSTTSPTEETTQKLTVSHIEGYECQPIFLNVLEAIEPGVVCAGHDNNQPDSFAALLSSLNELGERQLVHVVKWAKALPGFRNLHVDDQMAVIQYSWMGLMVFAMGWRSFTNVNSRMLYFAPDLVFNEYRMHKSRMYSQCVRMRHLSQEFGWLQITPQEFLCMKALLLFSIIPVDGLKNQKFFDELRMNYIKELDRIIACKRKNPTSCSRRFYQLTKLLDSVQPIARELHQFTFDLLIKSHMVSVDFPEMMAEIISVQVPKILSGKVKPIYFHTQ

[2] = biological target: T2, GR (cytosol from IM-9 cells) (Homo sapiens, UniProt P04150); assay: GR binding assay (3H-Dexamethasone displacement)
T2 sequence (P04150 1-777): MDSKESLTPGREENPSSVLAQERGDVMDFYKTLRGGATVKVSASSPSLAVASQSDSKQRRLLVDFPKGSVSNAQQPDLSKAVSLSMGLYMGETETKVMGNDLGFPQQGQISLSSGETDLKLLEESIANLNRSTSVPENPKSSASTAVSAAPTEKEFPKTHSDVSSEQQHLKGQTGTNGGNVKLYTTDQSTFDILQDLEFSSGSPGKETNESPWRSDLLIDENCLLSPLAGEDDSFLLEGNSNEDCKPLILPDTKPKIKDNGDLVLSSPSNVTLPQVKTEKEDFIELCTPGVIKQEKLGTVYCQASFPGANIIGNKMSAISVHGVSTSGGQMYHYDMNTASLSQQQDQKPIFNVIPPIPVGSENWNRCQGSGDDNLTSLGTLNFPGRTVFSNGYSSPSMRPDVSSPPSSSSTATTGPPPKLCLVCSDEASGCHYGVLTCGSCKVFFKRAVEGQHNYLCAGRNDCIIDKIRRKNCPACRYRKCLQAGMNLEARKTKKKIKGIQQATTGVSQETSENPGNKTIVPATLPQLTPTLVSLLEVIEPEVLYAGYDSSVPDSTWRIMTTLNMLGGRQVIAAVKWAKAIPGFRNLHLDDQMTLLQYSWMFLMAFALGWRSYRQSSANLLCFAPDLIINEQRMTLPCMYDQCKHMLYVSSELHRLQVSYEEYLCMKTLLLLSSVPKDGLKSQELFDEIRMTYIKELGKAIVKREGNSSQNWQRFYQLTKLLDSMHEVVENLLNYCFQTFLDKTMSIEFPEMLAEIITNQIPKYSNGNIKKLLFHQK

[3] = biological target: T3, AR (cytosol from LnCaP cells) (Homo sapiens, UniProt P10275, T878A); assay: AR binding assay (3H-R1881 displacement)
T3 sequence (P10275 1-920 T878A): T1 sequence (P10275 1-920) with T878A
Experimental: The plate was then centrifuged at 3000 rpm for 30 minutes at 4° C.

[4] = tested on: 22Rv1 cells; assay: Cell viability assay (CellTiterGlo); details: Homo sapiens, 22Rv1, 144 h, read-out: 22RV1 (IC50, nM)
[5] = biological target: T4, ligand binding domain of the glucocorticoid receptor (HEK293 cells stably expressing) (Homo sapiens, UniProt P04150); assay: GR antagonism assay (luciferase reporter)
T4 sequence (P04150 524-758 limits assumed): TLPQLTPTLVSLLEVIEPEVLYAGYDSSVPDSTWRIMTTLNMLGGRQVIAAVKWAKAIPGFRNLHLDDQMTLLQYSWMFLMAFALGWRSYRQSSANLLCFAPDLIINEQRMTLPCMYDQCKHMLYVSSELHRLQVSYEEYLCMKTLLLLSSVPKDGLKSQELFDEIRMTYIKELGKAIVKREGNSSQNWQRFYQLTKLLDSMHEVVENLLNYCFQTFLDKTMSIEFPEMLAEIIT

[6] = tested on: LNCap cells; assay: Cell viability assay (CellTiterGlo); format: cell-based; details: Homo sapiens, 144 h
[7] = tested on: IEC6 cells; assay: Cell viability assay (CellTiterGlo); details: Rattus norvegicus, IEC-6, 144 h, read-out: IEC-6 (IC50, nM)
Experimental: Cell viability assay: LNCap, 22Rv1, MCF7, MDAMB361, T47D, and IEC6 cells were seeded at a density of 500-2000 cells/well in 96 well plates, and a ‘T0’ (timepoint 0) was included along with the assay plate. The plates were then incubated at 37° C., 5% CO2 in a cell culture incubator overnight. On the next day, the ‘T0’ plate was assayed using CellTiterGlo (Promega, Inc) according to the manufacturer's instructions. The appropriate compounds were diluted in DMSO and added to the assay plate (final DMSO concentration of 0.1-0.2%) on the next day. The assay plates were incubated for 6 days at 37° C., 5% CO2. After the incubation period, the plates were assayed using CellTiterGlo (Promega, Inc) according to the manufacturer's instructions and luminescence was read on the En Vision plate reader. […] GraphPadPrism was used to analyze the data and determine GI50/IC50 values.

[8] = 6 days incubation, CellTiterGlo, read-out: LNCap (IC50)

SMILES | IC50 [1] [nM] | IC50 [2] [nM] | IC50 [3] [nM] | IC50 [4] [nM] | IC50 [5] [nM] | IC50 ([6]; read-out: LNCap (IC50, nM)) [nM] | IC50 [7] [nM] | IC50 [6, 8] [nM]
CC[C@@]1(O)C(=O)OCc2c1cc1n(c2=O)Cc2cc3c(CN4CCN(C(=O)C5CCN(c6ccc(C(=O)N[C@H]7CC[C@H](Oc8ccc(C#N)c(Cl)c8C)CC7)nn6)CC5)CC4)c(OC(=O)N4CCN(C)CC4)ccc3nc2-1 [Compound 27, (S)-10-((4-(1-(6-(((1r,4r)-4-(3-Chloro-4-cyano-2-methylphenoxy)cyclohexyl)carbamoyl)-pyridazin-3-yl)piperidine-4-carbonyl)piperazin-1-yl)methyl)-4-ethyl-4-hydroxy-3,14-dioxo-3,4,12,14-tetrahydro-1H-pyrano[3′,4′:6,7]indolizino[1,2-b]quinolin-9-yl 4-methylpiperazine-1-carboxylate Formate] | 101 to 1000 | 10 to 100 | < 10 | 101 to 1000 | > 1000 | 10 to 100 |  | 
CC[C@@]1(O)C(=O)OCc2c1cc1n(c2=O)Cc2cc3c(CN(C)C)c(OC(=O)N4CCN(CC5CCN(c6ccc(C(=O)N[C@H]7CC[C@H](N(C)c8ccc(C#N)c(Cl)c8)CC7)nn6)CC5)CC4)ccc3nc2-1 [Compound No. 18, (S)-10-((Dimethylamino)methyl)-4-ethyl-4-hydroxy-3,14-dioxo-3,4,12,14-tetrahydro-1H-pyrano[3′,4′:6,7]indolizino[1,2-b]quinolin-9-yl 4-((1-(6-(((1r,4r)-4-((3-chloro-4-cyanophenyl)(methyl)-amino)cyclohexyl)carbamoyl)pyridazin-3-yl)piperidin-4-yl)methyl)piperazine-1-carboxylate] | 101 to 1000 | 101 to 1000 | 10 to 100 | 10 to 100 | 101 to 1000 | 10 to 100 | 101 to 1000 | 
CC[C@@]1(O)C(=O)OCc2c1cc1n(c2=O)Cc2cc3c(CN(C)C)c(OC(=O)N4CCN(CCCCCCN(C)C5CCN(c6ccc(C(=O)N[C@H]7CC[C@H](Oc8ccc(C#N)c(Cl)c8C)CC7)nn6)CC5)CC4)ccc3nc2-1 [Compound No. 22, (S)-10-((Dimethylamino)methyl)-4-ethyl-4-hydroxy-3,14-dioxo-3,4,12,14-tetrahydro-1H-pyrano[3′,4′:6,7]indolizino[1,2-b]quinolin-9-yl 4-(6-((1-(6-(((1r,4r)-4-(3-chloro-4-cyano-2-methylphenoxy)-cyclohexyl)carbamoyl)pyridazin-3-yl)piperidin-4-yl)(methyl)amino)hexyl)piperazine-1-carboxylate Formate] | 101 to 1000 | 101 to 1000 | < 10 | 101 to 1000 | 101 to 1000 | 10 to 100 |  | 
CC[C@@]1(O)C(=O)OCc2c1cc1n(c2=O)Cc2cc3c(CN4CCN(C(=O)C5CCN(c6ccc(C(=O)N[C@H]7CC[C@H](Oc8ccc(C#N)c(Cl)c8C)CC7)nn6)CC5)CC4)c(O)ccc3nc2-1 [Compound 25, N-((1r,4r)-4-(3-Chloro-4-cyano-2-methylphenoxy)cyclohexyl)-6-(4-(4-(((S)-4-ethyl-4,9-dihydroxy-3,14-dioxo-3,4,12,14-tetrahydro-1H-pyrano[3′,4′:6,7]indolizino[1,2-b]quinolin-10-yl)methyl)piperazine-1-carbonyl)piperidin-1-yl)pyridazine-3-carboxamide] | > 1000 | > 1000 | < 10 | 10 to 100 | > 1000 |  |  | < 10
CC[C@@]1(OC(=O)N2CCN(CC3CCN(c4ccc(C(=O)N[C@H]5CC[C@H](Oc6ccc(C#N)c(Cl)c6C)CC5)nn4)CC3)CC2)C(=O)OCc2c1cc1n(c2=O)Cc2cc3cc(OC)ccc3nc2-1 [Compound 23, (S)-4-Ethyl-9-methoxy-3,14-dioxo-3,4,12,14-tetrahydro-1H-pyrano[3′,4′:6,7]indolizino[1,2-b]quinolin-4-yl 4-((1-(6-(((1r,4r)-4-(3-chloro-4-cyano-2-methylphenoxy)cyclohexyl)carbamoyl)pyridazin-3-yl)piperidin-4-yl)methyl)piperazine-1-carboxylate] | > 1000 | > 1000 | 10 to 100 | 101 to 1000 | > 1000 |  |  | 10 to 100
CC[C@@]1(O)C(=O)OCc2c1cc1n(c2=O)Cc2cc3c(CN4CCN(CC5CCN(c6ccc(C(=O)N[C@H]7CC[C@H](Oc8ccc(C#N)c(Cl)c8C)CC7)nn6)CC5)CC4)c(O)ccc3nc2-1 [Compound 26, N-((1r,4r)-4-(3-Chloro-4-cyano-2-methylphenoxy)cyclohexyl)-6-(4-((4-(((S)-4-ethyl-4,9-dihydroxy-3,14-dioxo-3,4,12,14-tetrahydro-1H-pyrano[3′,4′:6,7]indolizino[1,2-b]quinolin-10-yl)methyl)piperazin-1-yl)methyl)piperidin-1-yl)pyridazine-3-carboxamide Formate] | > 1000 | > 1000 | < 10 | 10 to 100 | > 1000 |  |  | < 10
